# Test results reported in patent US20160150778A1, “PLASTIC HAVING A BIOCIDAL SURFACE AND METHOD FOR PRODUCING SAID PLASTIC” (JANSEN AG, priority 2013, published 2016).
# Legend:
# [1] = discoloration / decomposition of quat on compounding into polyethylene melt; type: physicochemical; set-up: key: ++: heavy discoloration; +: discoloration; 0: weak discoloration; −: hardly any discoloration
# Procedure: Experiments were carried out in which the additives shown in Table 2 were processed into a polyethylene melt in a concentration of 2.5%, 5% and 10% into polyethylene RT Dowlex 2388. The compounding conditions included 12 minutes of mixing at 210° C. Partial decomposition of the quat was observed during this step.
# Part of the time, a strong violet coloration and a (“fishy”) smell of amines were observed, in particular with additives containing multiple methyl groups and at high concentrations. The probable decomposition mechanism is a Hofmann decomposition.
# [2] = solubility of the oil in solvents; type: physicochemical
# Procedure: A 250 mL flask was filled with 37.92 g (52.5 mmol) of PEG (400) ditosylate. Approximately 100 mL of acetone was added, followed by 16.5 g (approximately 21.6 mL or 104.9 mmol) of dimethyloctylamine. […] The oil was soluble in acetone, chloroform and water, but insoluble in ethyl acetate.
# [3] = 2.5% additive in polyethylene RT Dowlex 2388, 12 minutes of mixing at 210° C
# [4] = 5% additive in polyethylene RT Dowlex 2388, 12 minutes of mixing at 210° C
# [5] = 10% additive in polyethylene RT Dowlex 2388, 12 minutes of mixing at 210° C
Compound,"discoloration [1, 3]","discoloration [1, 4]","discoloration [1, 5]",solubility ([2]; acetone),solubility ([2]; chloroform),solubility ([2]; ethyl acetate),solubility ([2]; water)
CCCCCCCCCCCCCCCCCC[N+](C)(C)Cc1ccccc1 [additive A],+,+,+,,,,
CCCCCCCCCCCCCCCCCC[N+](C)(C)C [additive B],0,+,++,,,,
CCCCCCCCCCCCCCCCCC[N+](C)(C)CCCCCCCCCCCCCCCCCC [additive C],0,0,+,,,,
Br.CCCCCCCCCCCCCCCCCCN(C)CCCCCCCCCCCCCCCCCC [additive D],−,−,0,,,,
Br.CCCCCCCCCCCCCCCCCCN(CCCCCCCCCCCCCCCCCC)CCCCCCCCCCCCCCCCCC [additive E],−,−,−,,,,
"α,ω-bis(dimethyloctylammonium)PEG(400) ditosylate",,,,soluble,soluble,insoluble,soluble
